Key:
[1] = tested on: antibodies in sera from SARS patients (sera 1a, 1b, 2, 6, 37, 62, London, SARS-yellow, SARS-green); type: binding, human; parameters: Binding of serum 6 to linear peptides of protein X1 of SARS-CoV Urbani / Binding of serum 37 to linear peptides of protein X1 of SARS-CoV Urbani / Binding of serum 6 to looped/cyclic peptide (PEPSCAN-ELISA) / Binding of serum 37 to looped/cyclic peptide (PEPSCAN-ELISA) / Binding of serum 37 to looped/cyclic peptides of protein X1 of SARS-CoV Urbani / Binding of serum 6 to linear peptides of protein X2 / Binding of serum 37 to linear peptides of protein X2 / Binding of serum 37 to looped/cyclic peptides of protein X2 of SARS-CoV Urbani / Binding of serum 6 to linear peptides of protein M of SARS-CoV Urbani / Binding of serum 37 to linear peptides of protein M of SARS-CoV Urbani / Binding of serum 6 to looped/cyclic peptides of protein M of SARS-CoV Urbani / Binding of serum 37 to looped/cyclic peptides of protein M of SARS-CoV Urbani / Binding of serum 6 to linear peptides of protein X3 of SARS-CoV Urbani / Binding of serum 37 to linear peptides of protein X3 of SARS-CoV Urbani / Binding of serum 37 to looped/cyclic peptides of protein X3 of SARS-CoV Urbani / Binding of serum 6 to linear peptides of protein X4 of SARS-CoV Urbani / Binding of serum 37 to linear peptides of protein X4 of SARS-CoV Urbani / Binding of serum 37 to looped/cyclic peptides of protein X4 of SARS-CoV Urbani / Binding of serum 6 to linear peptides of protein X5 of SARS-CoV Urbani / Binding of serum 37 to linear peptides of protein X5 of SARS-CoV Urbani / Binding of serum 37 to looped/cyclic peptides of protein X5 of SARS-CoV Urbani / Binding of serum 6 to linear peptides of protein N of SARS-CoV Urbani / Binding of serum 37 to linear peptides of protein N of SARS-CoV Urbani / Binding of serum 6 to linear peptide (PEPSCAN-ELISA) / Binding of serum 1a to looped/cyclic peptides of protein N of SARS-CoV Urbani / Binding of serum 1b to looped/cyclic peptides of protein N of SARS-CoV Urbani / Binding of serum 2 to looped/cyclic peptides of protein N of SARS-CoV Urbani / Binding of serum 6 to looped/cyclic peptides of protein N of SARS-CoV Urbani / Binding of serum 37 to looped/cyclic peptides of protein N of SARS-CoV Urbani / Binding of serum 62 to looped/cyclic peptides of protein N of SARS-CoV Urbani / Binding of serum London to looped/cyclic peptides of protein N of SARS-CoV Urbani / Binding of serum SARS-green to looped/cyclic peptides of protein N of SARS-CoV Urbani: unit not given here
[2] = tested on: control sera (pooled serum of ten healthy LUMC hospital workers; commercial negative donor pooled serum from the Dutch bloodbank); type: binding, human; parameters: Binding of Control serum LUMC to linear peptides / Binding of Control serum Blood-bank to linear peptides / Binding of Control serum LUMC to looped peptides / Binding of Control Serum Blood-Bank to Looped peptides / Binding of Control serum LUMC to linear peptides of the protein M of SARS-CoV Urbani / Binding of Control serum Blood-bank to linear peptides of the protein M of SARS-CoV Urbani / Binding of Control serum LUMC to looped peptides of the protein M of SARS-CoV Urbani / Binding of Control Serum Blood-Bank to Looped peptides of the protein M of SARS-CoV Urbani: unit not given here
[3] = tested on: rabbit serum obtained by immunizing a rabbit with the SARS-CoV strain Frankfurt 1; type: binding; parameters: Binding of a rabbit serum to linear peptides / Binding of a rabbit serum to looped peptides / Rabbit serum linear peptides / Rabbit serum looped peptides / Binding of a rabbit serum to linear peptides of protein N of SARS-CoV Urbani (Rabbit serum linear peptides) / Binding of a rabbit serum to looped/cyclic peptides of protein N of SARS-CoV Urbani (Rabbit serum looped peptides): unit not given here

## ETNILLNVPLRGTIV
[1]
  Binding of serum 1a to linear peptides of protein M of SARS-CoV Urbani: 0.7
  Binding of serum 1a to looped/cyclic peptides of protein M of SARS-CoV Urbani: 0.5
  Binding of serum 1b to linear peptides of protein M of SARS-CoV Urbani: 0.5
  Binding of serum 1b to looped/cyclic peptides of protein M of SARS-CoV Urbani: 0.6
  Binding of serum 2 to linear peptides of protein M of SARS-CoV Urbani: 0.5
  Binding of serum 2 to looped/cyclic peptides of protein M of SARS-CoV Urbani: 0.7
  Binding of serum 6 to linear peptides of protein M of SARS-CoV Urbani: 0.4
  Binding of serum 6 to looped/cyclic peptides of protein M of SARS-CoV Urbani: 0.8
  Binding of serum 37 to linear peptides of protein M of SARS-CoV Urbani: 0.6
  Binding of serum 37 to looped/cyclic peptides of protein M of SARS-CoV Urbani: 0.4
  Binding of serum 62 to linear peptides of protein M of SARS-CoV Urbani: 0.7
  Binding of serum 62 to looped/cyclic peptides of protein M of SARS-CoV Urbani: 0.5
  Binding of serum London to linear peptides of protein M of SARS-CoV Urbani: 0.4
  Binding of serum London to looped/cyclic peptides of protein M of SARS-CoV Urbani: 0.2
  Binding of serum SARS-green to linear peptides of protein M of SARS-CoV Urbani: 0.3
  Binding of serum SARS-green to looped/cyclic peptides of protein M of SARS-CoV Urbani: 0.2
  Binding of serum SARS-yellow to linear peptides of protein M of SARS-CoV Urbani: 0.1
  Binding of serum SARS-yellow to looped/cyclic peptides of protein M of SARS-CoV Urbani: 0.5
[2]
  Binding of Control Serum Blood-Bank to Looped peptides of the protein M of SARS-CoV Urbani: 1.0
  Binding of Control serum Blood-bank to linear peptides of the protein M of SARS-CoV Urbani: 0.7
  Binding of Control serum LUMC to linear peptides of the protein M of SARS-CoV Urbani: 0.3
  Binding of Control serum LUMC to looped peptides of the protein M of SARS-CoV Urbani: 0.9
[3]
  Rabbit serum linear peptides: 0.5
  Rabbit serum looped peptides: 0.0

## EVYYQLESTQITTDT
[1]
  Binding of serum 1a to linear peptides of protein X1 of SARS-CoV Urbani: 0.7
  Binding of serum 1a to looped/cyclic peptides of protein X1 of SARS-CoV Urbani: 0.5
  Binding of serum 1b to linear peptides of protein X1 of SARS-CoV Urbani: 0.6
  Binding of serum 1b to looped/cyclic peptides of protein X1 of SARS-CoV Urbani: 0.4
  Binding of serum 2 to linear peptides of protein X1 of SARS-CoV Urbani: 0.4
  Binding of serum 2 to looped/cyclic peptides of protein X1 of SARS-CoV Urbani: 0.1
  Binding of serum 6 to linear peptides of protein X1 of SARS-CoV Urbani: 0.5
  Binding of serum 6 to looped/cyclic peptides of protein X1 of SARS-CoV Urbani: 0.2
  Binding of serum 37 to linear peptides of protein X1 of SARS-CoV Urbani: 0.7
  Binding of serum 37 to looped/cyclic peptides of protein X1 of SARS-CoV Urbani: 0.5
  Binding of serum 62 to linear peptides of protein X1 of SARS-CoV Urbani: 0.4
  Binding of serum 62 to looped/cyclic peptides of protein X1 of SARS-CoV Urbani: 0.5
  Binding of serum London to linear peptides of protein X1 of SARS-CoV Urbani: 0.3
  Binding of serum London to looped/cyclic peptides of protein X1 of SARS-CoV Urbani: 0.2
  Binding of serum SARS-green to linear peptides of protein X1 of SARS-CoV Urbani: 0.2
  Binding of serum SARS-green to looped/cyclic peptides of protein X1 of SARS-CoV Urbani: 0.3
  Binding of serum SARS-yellow to linear peptides of protein X1 of SARS-CoV Urbani: 0.3
  Binding of serum SARS-yellow to looped/cyclic peptides of protein X1 of SARS-CoV Urbani: 0.3
[2]
  Binding of Control Serum Blood-Bank to Looped peptides: 0.5
  Binding of Control serum Blood-bank to linear peptides: 0.4
  Binding of Control serum LUMC to linear peptides: 0.4
  Binding of Control serum LUMC to looped peptides: 0.4
[3]
  Binding of a rabbit serum to linear peptides: 0.1
  Binding of a rabbit serum to looped peptides: 0.4

## FAAYNRYRIGNYKLN
[1]
  Binding of serum 1a to linear peptides of protein M of SARS-CoV Urbani: 0.6
  Binding of serum 1a to looped/cyclic peptides of protein M of SARS-CoV Urbani: 0.8
  Binding of serum 1b to linear peptides of protein M of SARS-CoV Urbani: 0.3
  Binding of serum 1b to looped/cyclic peptides of protein M of SARS-CoV Urbani: 0.4
  Binding of serum 2 to linear peptides of protein M of SARS-CoV Urbani: 0.5
  Binding of serum 2 to looped/cyclic peptides of protein M of SARS-CoV Urbani: 0.7
  Binding of serum 6 to linear peptides of protein M of SARS-CoV Urbani: 0.4
  Binding of serum 6 to looped/cyclic peptides of protein M of SARS-CoV Urbani: 1.3
  Binding of serum 37 to linear peptides of protein M of SARS-CoV Urbani: 0.5
  Binding of serum 37 to looped/cyclic peptides of protein M of SARS-CoV Urbani: 0.6
  Binding of serum 62 to linear peptides of protein M of SARS-CoV Urbani: 0.7
  Binding of serum 62 to looped/cyclic peptides of protein M of SARS-CoV Urbani: 0.6
  Binding of serum London to linear peptides of protein M of SARS-CoV Urbani: 0.3
  Binding of serum London to looped/cyclic peptides of protein M of SARS-CoV Urbani: 0.7
  Binding of serum SARS-green to linear peptides of protein M of SARS-CoV Urbani: 0.2
  Binding of serum SARS-green to looped/cyclic peptides of protein M of SARS-CoV Urbani: 0.2
  Binding of serum SARS-yellow to linear peptides of protein M of SARS-CoV Urbani: 0.0
  Binding of serum SARS-yellow to looped/cyclic peptides of protein M of SARS-CoV Urbani: 0.8
[2]
  Binding of Control Serum Blood-Bank to Looped peptides of the protein M of SARS-CoV Urbani: 0.6
  Binding of Control serum Blood-bank to linear peptides of the protein M of SARS-CoV Urbani: 0.7
  Binding of Control serum LUMC to linear peptides of the protein M of SARS-CoV Urbani: 0.3
  Binding of Control serum LUMC to looped peptides of the protein M of SARS-CoV Urbani: 0.7
[3]
  Rabbit serum linear peptides: 0.3
  Rabbit serum looped peptides: 0.6

## FAFACADGTRHTYQL
[1]
  Binding of serum 1a to linear peptides of protein X4 of SARS-CoV Urbani: 0.7
  Binding of serum 1a to looped/cyclic peptides of protein X4 of SARS-CoV Urbani: 0.8
  Binding of serum 1b to linear peptides of protein X4 of SARS-CoV Urbani: 0.5
  Binding of serum 1b to looped/cyclic peptides of protein X4 of SARS-CoV Urbani: 0.5
  Binding of serum 2 to linear peptides of protein X4 of SARS-CoV Urbani: 0.3
  Binding of serum 2 to looped/cyclic peptides of protein X4 of SARS-CoV Urbani: 0.9
  Binding of serum 6 to linear peptides of protein X4 of SARS-CoV Urbani: 0.5
  Binding of serum 6 to looped/cyclic peptides of protein X4 of SARS-CoV Urbani: 0.5
  Binding of serum 37 to linear peptides of protein X4 of SARS-CoV Urbani: 0.6
  Binding of serum 37 to looped/cyclic peptides of protein X4 of SARS-CoV Urbani: 0.6
  Binding of serum 62 to linear peptides of protein X4 of SARS-CoV Urbani: 0.7
  Binding of serum 62 to looped/cyclic peptides of protein X4 of SARS-CoV Urbani: 0.5
  Binding of serum London to linear peptides of protein X4 of SARS-CoV Urbani: 0.6
  Binding of serum London to looped/cyclic peptides of protein X4 of SARS-CoV Urbani: 0.2
  Binding of serum SARS-green to linear peptides of protein X4 of SARS-CoV Urbani: 0.4
  Binding of serum SARS-green to looped/cyclic peptides of protein X4 of SARS-CoV Urbani: 0.5
  Binding of serum SARS-yellow to linear peptides of protein X4 of SARS-CoV Urbani: 0.2
  Binding of serum SARS-yellow to looped/cyclic peptides of protein X4 of SARS-CoV Urbani: 0.4
[2]
  Binding of Control Serum Blood-Bank to Looped peptides: 0.8
  Binding of Control serum Blood-bank to linear peptides: 0.7
  Binding of Control serum LUMC to linear peptides: 0.5
  Binding of Control serum LUMC to looped peptides: 0.7
[3]
  Rabbit serum linear peptides: 0.5
  Rabbit serum looped peptides: 0.1

## FAYSNRNRFLYIIKL
[1]
  Binding of serum 1a to linear peptides of protein M of SARS-CoV Urbani: 0.6
  Binding of serum 1b to linear peptides of protein M of SARS-CoV Urbani: 0.4
  Binding of serum 2 to linear peptides of protein M of SARS-CoV Urbani: 0.7
  Binding of serum 6 to linear peptides of protein M of SARS-CoV Urbani: 0.3
  Binding of serum 37 to linear peptides of protein M of SARS-CoV Urbani: 0.7
  Binding of serum 62 to linear peptides of protein M of SARS-CoV Urbani: 0.7
  Binding of serum London to linear peptides of protein M of SARS-CoV Urbani: 0.3
  Binding of serum SARS-green to linear peptides of protein M of SARS-CoV Urbani: 0.2
  Binding of serum SARS-yellow to linear peptides of protein M of SARS-CoV Urbani: 0.1
  Recognition of the peptide by sera of SARS-CoV infected individuals, and form (linear, looped/cyclic) in which it is recognized: recognized in looped/cyclic form
[2]
  Binding of Control Serum Blood-Bank to Looped peptides of the protein M of SARS-CoV Urbani: 0.4
  Binding of Control serum Blood-bank to linear peptides of the protein M of SARS-CoV Urbani: 0.6
  Binding of Control serum LUMC to linear peptides of the protein M of SARS-CoV Urbani: 0.4
  Binding of Control serum LUMC to looped peptides of the protein M of SARS-CoV Urbani: 0.6
[3]
  Rabbit serum linear peptides: 0.7
  Rabbit serum looped peptides: 0.6

— patent US20070128217A1 (priority 2003, published 2007)
